Laboratory results from ChEMBL document CHEMBL1201862, “PubChem BioAssay data set” (2004).
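Following 48 hours of exposure in 96-well plates, responses at five concentrations were used to interpolate endpoints linearly. Abbreviation: GI50, concentration required for 50% inhibition of growth.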 The source made the active and inactive calls. Rule as the data show it: active = GI50 up to about 1.1 µM and inactive = higher.

Legend:
Experiment in all cases: NCI tumour cell line growth inhibition, 48 h
[1] = test system: A498
[2] = test system: BT-549
[3] = test system: CAKI-1
[4] = test system: HCC 2998
[5] = test system: HL-60
[6] = test system: HOP-62
[7] = test system: IGROV-1
[8] = test system: NCI-H460
[9] = test system: OVCAR-3
[10] = test system: OVCAR-4
[11] = test system: OVCAR-5
[12] = test system: SF-295
[13] = test system: SK-MEL-5
[14] = test system: SN12C
[15] = test system: SNB-19
[16] = test system: SR
[17] = test system: T47D
[18] = test system: TK-10
[19] = test system: UO-31
[20] = test system: Malme-3M

Measured: GI50

COC(=O)C(CCC1C=CN(S(=O)(=O)c2ccc(C)cc2)C1)/N=C/c1ccccc1 (stereo unspecified)
inactive: [1] 99.3 µM | [2] 39.6 µM | [3] 87.3 µM | [4] 43.1 µM | [5] 1.29 µM | [6] 59.2 µM | [7] 38.4 µM | [8] 44.9 µM | [9] 35.9 µM | [10] 46.1 µM | [11] 60.7 µM | [12] 41.1 µM | [13] 22.2 µM | [14] 35.5 µM | [15] 45 µM | [16] 23.4 µM | [17] 47.6 µM | [18] 83.2 µM | [19] 65.5 µM

C=C1[C@H](OC(C)=O)[C@H]2[C@@H](OC(C)=O)[C@@H](C)C[C@]2(C)C(=O)[C@H](C)/C=C/C(C)(C)C(=O)[C@H](OCC(C)C)[C@H]1OC(C)=O
inactive: [1] > 25 µM | [2] > 25 µM | [3] 24.7 µM | [4] > 25 µM | [5] 7.57 µM | [6] 19.5 µM | [7] > 25 µM | [8] 12.6 µM | [9] > 25 µM | [10] > 25 µM | [11] > 25 µM | [12] 22.9 µM | [13] > 25 µM | [14] > 25 µM | [15] > 25 µM | [16] > 25 µM | [17] > 25 µM | [18] > 25 µM | [19] > 25 µM

OCCCCCCCCCCCOc1ccc(C2OCC3(CO2)COC(c2ccc(OCCCCCCCCCCCO)cc2)OC3)cc1 (stereo unspecified)
inactive: [1] > 50 µM | [2] > 50 µM | [3] > 50 µM | [4] > 50 µM | [6] > 50 µM | [7] > 50 µM | [20] > 50 µM | [8] > 50 µM | [9] > 50 µM | [10] > 50 µM | [11] > 50 µM | [12] > 50 µM | [13] > 50 µM | [14] > 50 µM | [15] > 50 µM | [16] > 50 µM | [17] > 50 µM | [18] > 50 µM | [19] > 50 µM

O=C(Oc1ccc2c(c1)CN(Cc1ccccc1)CO2)c1ccccc1
inactive: [1] 17.3 µM | [2] 18.5 µM | [3] 20 µM | [4] 14.5 µM | [6] 18.4 µM | [7] 13.3 µM | [20] 18.9 µM | [8] 18.7 µM | [9] 15.4 µM | [10] 15.7 µM | [11] 18.3 µM | [12] 17.8 µM | [13] 17.1 µM | [14] 17.1 µM | [15] 18.7 µM | [16] 18.2 µM | [17] 21.7 µM | [18] 16.2 µM | [19] 17.7 µM

O=[N+]([O-])C(=C(Nc1cccc2cccnc12)Nc1cccc2cccnc12)C(Cl)=C(Cl)Cl
inactive: [1] > 100 µM | [2] 30.1 µM | [3] > 49.9 µM | [4] > 61.7 µM | [6] > 100 µM | [7] 3.98 µM | [20] > 92.3 µM | [8] 33.4 µM | [9] 27.3 µM | [10] 34 µM | [11] > 100 µM | [12] 43 µM | [13] 4.97 µM | [14] > 55.1 µM | [15] > 96.2 µM | [16] > 100 µM | [17] 29.1 µM | [18] > 100 µM | [19] > 100 µM

COc1cc2nc3n(c2cc1OC)C(O)c1c(Cl)nc(SC)nc1S3 (stereo unspecified)
inactive: [1] 6.81 µM | [2] 2.16 µM | [3] 7.24 µM | [4] 4.21 µM | [6] 3.72 µM | [7] 2.6 µM | [20] 1.2 µM | [8] 3.44 µM | [9] 3.12 µM | [10] 5.77 µM | [11] 16.6 µM | [12] 7.4 µM | [13] 1.92 µM | [14] 3.86 µM | [15] 6.47 µM | [16] 3.68 µM | [17] 3.8 µM | [18] 5.46 µM | [19] 2.99 µM

CC(=O)c1cn(-c2ccc(Cl)cc2)c(=O)c2c(N)n[nH]c12
inactive: [1] > 100 µM | [2] 2.56 µM | [3] > 100 µM | [4] > 100 µM | [5] > 100 µM | [6] > 100 µM | [7] > 100 µM | [8] > 100 µM | [10] > 100 µM | [12] > 100 µM | [13] > 100 µM | [15] > 100 µM | [16] > 100 µM | [17] > 100 µM | [18] > 100 µM | [19] > 100 µM

O=P(O)(O)c1ccc2c(c1)OCCOCCOCCOCCO2
inactive: [1] > 100 µM | [2] > 100 µM | [4] > 100 µM | [5] > 100 µM | [6] > 100 µM | [7] > 100 µM | [20] > 100 µM | [8] > 100 µM | [12] > 100 µM | [13] > 100 µM | [14] > 100 µM | [15] > 100 µM | [16] > 100 µM | [17] > 100 µM | [18] > 100 µM | [19] > 100 µM
